Test system: 186277-243-T-J2-PDC complex spheroid viability
Experiment: Anticancer human tumor 186277-243-T-J2-PDC patient-derived colon adenocarcinoma cell line growth inhibition [GQUAD]
Conditions: for IC50: curve of first compound; for viability, T/C: stronger effect = lower value
In short: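 Tumor cells were grown as complex spheroids with HUVEC endothelial cells and mesenchymal stem cells as stroma. G-quadruplex stabilizers were combined with targeted agents over half-log dilutions from near the clinical Cmax, or from 10 microM.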

[1] = second compound 0.0316 µM, first compound 0.0316 µM
[2] = second compound 0.0316 µM, first compound 0.1 µM
[3] = second compound 0.0316 µM, first compound 0.316 µM
[4] = second compound 0.0316 µM, first compound 1 µM
[5] = second compound 0.0316 µM, first compound 3.16 µM
[6] = second compound 0.0316 µM, first compound 10 µM
[7] = second compound 0.1 µM, first compound 0.0316 µM
[8] = second compound 0.1 µM, first compound 0.1 µM
[9] = second compound 0.1 µM, first compound 0.316 µM
[10] = second compound 0.1 µM, first compound 1 µM
[11] = second compound 0.1 µM, first compound 3.16 µM
[12] = second compound 0.1 µM, first compound 10 µM
[13] = second compound 0.316 µM, first compound 0.0316 µM
[14] = second compound 0.316 µM, first compound 0.1 µM
[15] = second compound 0.316 µM, first compound 0.316 µM
[16] = second compound 0.316 µM, first compound 1 µM
[17] = second compound 0.316 µM, first compound 3.16 µM
[18] = second compound 0.316 µM, first compound 10 µM
[19] = second compound 1 µM, first compound 0.0316 µM
[20] = second compound 1 µM, first compound 0.1 µM
[21] = second compound 1 µM, first compound 0.316 µM
[22] = second compound 1 µM, first compound 1 µM
[23] = second compound 1 µM, first compound 3.16 µM
[24] = second compound 1 µM, first compound 10 µM
[25] = second compound 3.16 µM, first compound 0.0316 µM
[26] = second compound 3.16 µM, first compound 0.1 µM
[27] = second compound 3.16 µM, first compound 0.316 µM
[28] = second compound 3.16 µM, first compound 1 µM
[29] = second compound 3.16 µM, first compound 3.16 µM
[30] = second compound 3.16 µM, first compound 10 µM
[31] = second compound 10 µM, first compound 0.0316 µM
[32] = second compound 10 µM, first compound 0.1 µM
[33] = second compound 10 µM, first compound 0.316 µM
[34] = second compound 10 µM, first compound 1 µM
[35] = second compound 10 µM, first compound 3.16 µM
[36] = second compound 10 µM, first compound 10 µM
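Note: spheroids exposed to drugs for 7 days.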
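Throughout, for viability, T/C: 100% = DMSO vehicle control viability.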

Molecule C=CCn1c(=O)c2cnc(Nc3ccc(N4CCN(C)CC4)cc3)nc2n1-c1cccc(C(C)(C)O)n1 + CN(C)c1ccc(Nc2c3ccc(NC(=O)CCN4CCCC4)cc3nc3cc(NC(=O)CCN4CCCC4)ccc23)cc1 has an IC50 (second compound 0.0316 µM) of 0.174 µM, an IC50 (second compound 0.1 µM) of 0.175 µM and an IC50 (second compound 0.316 µM) of 0.2 µM. It also gave an IC50 (second compound 1 µM) of 0.189 µM, an IC50 (second compound 3.16 µM) of 0.179 µM and an IC50 (second compound 10 µM) of 0.184 µM. The viability, T/C [1] was 107%, the viability, T/C [2] was 81.7% and the viability, T/C [3] was 15.5%. For the same molecule, the viability, T/C [4] was 10.1%, the viability, T/C [5] was 9.78% and the viability, T/C [6] was 13%. For the same molecule, the viability, T/C [7] was 106%, the viability, T/C [8] was 83.8% and the viability, T/C [9] was 14.5%. The viability, T/C [10] was 8.74%, the viability, T/C [11] was 8.46% and the viability, T/C [12] was 11.9%. It also gave a viability, T/C [13] of 96.8%, a viability, T/C [14] of 94.4% and a viability, T/C [15] of 20.9%. It also gave a viability, T/C [16] of 8.7%, a viability, T/C [17] of 9.7% and a viability, T/C [18] of 12.2%. For the same molecule, the viability, T/C [19] was 93.1%, the viability, T/C [20] was 99.1% and the viability, T/C [21] was 13%. It also gave a viability, T/C [22] of 9.53%, a viability, T/C [23] of 9.39% and a viability, T/C [24] of 12.5%. The viability, T/C [25] was 110%, the viability, T/C [26] was 85.3% and the viability, T/C [27] was 15.4%. The viability, T/C [28] was 10.1%, the viability, T/C [29] was 9.74% and the viability, T/C [30] was 14.9%. The viability, T/C [31] was 101%, the viability, T/C [32] was 88.6% and the viability, T/C [33] was 16%. For the same molecule, the viability, T/C [34] was 10.1%, the viability, T/C [35] was 8.2% and the viability, T/C [36] was 12.7%.
CC(C)(O)C1CCC(Nc2ccc3ncc(-c4cccc(C(F)(F)F)c4)n3n2)CC1 (stereo unspecified) + CN(C)c1ccc(Nc2c3ccc(NC(=O)CCN4CCCC4)cc3nc3cc(NC(=O)CCN4CCCC4)ccc23)cc1 showed an IC50 (second compound 0.0316 µM) of 2.7 µM, an IC50 (second compound 0.1 µM) of 4.05 µM and an IC50 (second compound 0.316 µM) of 2.78 µM. For the same molecule, the IC50 (second compound 1 µM) was 5.19 µM, the IC50 (second compound 3.16 µM) was 2.89 µM and the IC50 (second compound 10 µM) was 3.53 µM. It also gave a viability, T/C [1] of 103%, a viability, T/C [2] of 84.8% and a viability, T/C [3] of 113%. For the same molecule, the viability, T/C [4] was 92.4%, the viability, T/C [5] was 42.7% and the viability, T/C [6] was 44%. It also gave a viability, T/C [7] of 98.8%, a viability, T/C [8] of 89.1% and a viability, T/C [9] of 91.4%. The viability, T/C [10] was 92.1%, the viability, T/C [11] was 51.6% and the viability, T/C [12] was 44.1%. For the same molecule, the viability, T/C [13] was 107%, the viability, T/C [14] was 92.7% and the viability, T/C [15] was 108%. For the same molecule, the viability, T/C [16] was 92.3%, the viability, T/C [17] was 44.9% and the viability, T/C [18] was 36%. For the same molecule, the viability, T/C [19] was 93.1%, the viability, T/C [20] was 99.5% and the viability, T/C [21] was 85.7%. For the same molecule, the viability, T/C [22] was 92%, the viability, T/C [23] was 56.2% and the viability, T/C [24] was 41.7%. For the same molecule, the viability, T/C [25] was 93.1%, the viability, T/C [26] was 93.5% and the viability, T/C [27] was 108%. The viability, T/C [28] was 81.6%, the viability, T/C [29] was 48.2% and the viability, T/C [30] was 27.6%. For the same molecule, the viability, T/C [31] was 133%, the viability, T/C [32] was 107% and the viability, T/C [33] was 96.7%. The viability, T/C [34] was 98.2%, the viability, T/C [35] was 41.4% and the viability, T/C [36] was 22.8%.
In the case of COc1ncnc(C2CC2)c1-c1ncc2cnn(Cc3ccc(-c4nc(C(F)(F)F)cn4C(C)C)cc3)c2n1 + CN(C)c1ccc(Nc2c3ccc(NC(=O)CCN4CCCC4)cc3nc3cc(NC(=O)CCN4CCCC4)ccc23)cc1, the IC50 (second compound 0.0316 µM) is reported as > 10 µM, the IC50 (second compound 0.1 µM) is reported as > 10 µM and the IC50 (second compound 0.316 µM) is reported as > 10 µM. For the same molecule, the IC50 (second compound 1 µM) was > 10 µM, the IC50 (second compound 3.16 µM) was > 10 µM and the IC50 (second compound 10 µM) was > 10 µM. For the same molecule, the viability, T/C [1] was 106%, the viability, T/C [2] was 102% and the viability, T/C [3] was 101%. It also gave a viability, T/C [4] of 101%, a viability, T/C [5] of 106% and a viability, T/C [6] of 98.1%. For the same molecule, the viability, T/C [7] was 102%, the viability, T/C [8] was 93.2% and the viability, T/C [9] was 105%. It also gave a viability, T/C [10] of 94.8%, a viability, T/C [11] of 99% and a viability, T/C [12] of 98.2%. It also gave a viability, T/C [13] of 92.8%, a viability, T/C [14] of 110% and a viability, T/C [15] of 105%. The viability, T/C [16] was 98.7%, the viability, T/C [17] was 103% and the viability, T/C [18] was 85.6%. It also gave a viability, T/C [19] of 100%, a viability, T/C [20] of 114% and a viability, T/C [21] of 101%. For the same molecule, the viability, T/C [22] was 107%, the viability, T/C [23] was 112% and the viability, T/C [24] was 84.3%. It also gave a viability, T/C [25] of 99.1%, a viability, T/C [26] of 98% and a viability, T/C [27] of 113%. It also gave a viability, T/C [28] of 108%, a viability, T/C [29] of 118% and a viability, T/C [30] of 95%. For the same molecule, the viability, T/C [31] was 111%, the viability, T/C [32] was 116% and the viability, T/C [33] was 106%. For the same molecule, the viability, T/C [34] was 99.2%, the viability, T/C [35] was 105% and the viability, T/C [36] was 53.8%.
